Experimental data as given in patent US8765728B2, “[1,5]-diazocin derivatives” (MelliTech, priority 2009, dated 2014).

Test system: Min6 cell
Assay: Insulin secretion response of beta cell line to formula I compounds (insulin ELISA)
Assay type: cell-based
Conditions: rank according to % increase versus control at most effective dose
In short: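 After compound or vehicle exposure, Min6 cells were held 2 h in glucose-free medium and preincubated 30 min at 37° C in glucose-free KRBH (pH 7.4, 0.1% BSA). They were then incubated 30 min at 37° C in KRBH with varying glucose. Secreted insulin and acid-ethanol-extracted intracellular insulin were measured by ELISA.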

**Q.** Which “Insulin secretion (Min6 cell) Range 1 to 5” value (“Insulin secretion” for short) does the source give for `O=C(Cc1ccc(F)cc1)N1CCC(=O)N(C2CC2)Cc2cc(F)ccc21` [Compound 71, 5-cyclopropyl-8-fluoro-1-(2-(4-fluorophenyl)acetyl)-2,3,5,6-tetrahydrobenzo[b][1,5]diazocin-4(1H)-one] here?
**A.** 4 (4: 140-170% of control)

**Q.** With `O=C1CCN(Cc2ccccc2)c2ccc(F)cc2CN1C1CC1` [Compound 72, 1-benzyl-5-cyclopropyl-8-fluoro-2,3,5,6-tetrahydrobenzo[b][1,5]diazocin-4(1H)-one] as the molecule, how does the “Insulin secretion” value read?
**A.** 3 (3: 120-140% of control)

**Q.** `O=C1CCN(CCc2ccccc2)c2ccc(F)cc2CN1C1CC1` [Compound 73, 5-cyclopropyl-8-fluoro-1-phenethyl-2,3,5,6-tetrahydrobenzo[b][1,5]diazocin-4(1H)-one] was tested. Which “Insulin secretion” value did it give?
**A.** 4 (4: 140-170% of control)

**Q.** For `O=C1CCN(CCCc2ccccc2)c2ccc(F)cc2CN1C1CC1` [Compound 74, 5-cyclopropyl-8-fluoro-1-(3-phenylpropyl)-2,3,5,6-tetrahydrobenzo[b][1,5]diazocin-4(1H)-one], which “Insulin secretion” value is on record?
**A.** 4 (4: 140-170% of control)

**Q.** For `O=C(c1ccc(F)cc1)N1CCC(=O)N(C2CC2)Cc2cccnc21` [Compound 75, 5-cyclopropyl-1-(4-fluorobenzoyl)-2,3,5,6-tetrahydropyrido[2,3-b][1,5]diazocin-4(1H)-one], which “Insulin secretion” value is on record?
**A.** 4 (4: 140-170% of control)

**Q.** `O=C(Cc1ccc(F)cc1)N1CCC(=O)N(C2CC2)Cc2cccnc21` [Compound 76, 5-cyclopropyl-1-(2-(4-fluorophenyl)acetyl)-2,3,5,6-tetrahydropyrido[2,3-b][1,5]diazocin-4(1H)-one] was tested. Which “Insulin secretion” value did it give?
**A.** 5 (5: >170% of control)

**Q.** With `O=C(c1cccnc1)N1CCC(=O)N(C2CC2)Cc2cccnc21` [Compound 77, 5-cyclopropyl-1-nicotinoyl-2,3,5,6-tetrahydropyrido[2,3-b][1,5]diazocin-4(1H)-one] as the molecule, how does the “Insulin secretion” value read?
**A.** 5 (5: >170% of control)

**Q.** `O=C1CCNc2ccc(Cl)cc2CN1C1CC1` [Compound 78, 8-chloro-5-cyclopropyl-2,3,5,6-tetrahydrobenzo[b][1,5]diazocin-4(1H)-one] was tested. Which “Insulin secretion” value did it give?
**A.** 3 (3: 120-140% of control)

**Q.** How did the “Insulin secretion” value turn out when `O=C1CCN(C[C@@H](O)COCc2ccccc2)c2ccc(Cl)cc2CN1C1CC1` [Compound 79, (R)-1-(3-(benzyloxy)-2-hydroxypropyl)-8-chloro-5-cyclopropyl-2,3,5,6-tetrahydrobenzo[b][1,5]diazocin-4(1H)-one] was run?
**A.** 1 (1: 90-110% of control)

**Q.** For `O=C1CCNc2ccc3c(c2CN1C1CC1)OCCO3` [Compound 80, 11-cyclopropyl-2,3,8,9,11,12-hexahydro[1,4]dioxino[2,3-h][1,5]benzodiazocin-10(7H)-one], which “Insulin secretion” value is on record?
**A.** 3 (3: 120-140% of control)

**Q.** For `O=C1CCN(CC(O)COc2ccccc2)c2ccc(Cl)cc2CN1C1CC1` (stereo not drawn) [Compound 81, 8-chloro-5-cyclopropyl-1-(2-hydroxy-3-phenoxypropyl)-2,3,5,6-tetrahydrobenzo[b][1,5]diazocin-4(1H)-one], which “Insulin secretion” value is on record?
**A.** 1 (1: 90-110% of control)

**Q.** How did the “Insulin secretion” value turn out when `O=C(CN1CCC(=O)N(C2CC2)Cc2cc(Cl)ccc21)c1ccc(Cl)cc1` [Compound 82, 8-chloro-1-(2-(4-chlorophenyl)-2-oxoethyl)-5-cyclopropyl-2,3,5,6-tetrahydrobenzo[b][1,5]diazocin-4(1H)-one] was run?
**A.** 1 (1: 90-110% of control)

**Q.** How did the “Insulin secretion” value turn out when `O=C(CN1CCC(=O)N(C2CC2)Cc2cc(Cl)ccc21)c1cccc(F)c1` [Compound 83, 8-chloro-5-cyclopropyl-1-(2-(3-fluorophenyl)-2-oxoethyl)-2,3,5,6-tetrahydrobenzo[b][1,5]diazocin-4(1H)-one] was run?
**A.** 1 (1: 90-110% of control)

**Q.** With `COc1ccc2c(c1)CN(C1CC1)C(=O)CCN2C(=O)c1ccno1` [Compound 84, 5-cyclopropyl-1-(isoxazole-5-carbonyl)-8-methoxy-2,3,5,6-tetrahydrobenzo[b][1,5]diazocin-4(1H)-one] as the molecule, how does the “Insulin secretion” value read?
**A.** 1 (1: 90-110% of control)

**Q.** `O=C1CCN(CC(O)c2ccc(Cl)cc2)c2ccc(Cl)cc2CN1C1CC1` (stereo not drawn) [Compound 85, 8-chloro-1-(2-(4-chlorophenyl)-2-hydroxyethyl)-5-cyclopropyl-2,3,5,6-tetrahydrobenzo[b][1,5]diazocin-4(1H)-one] was tested. Which “Insulin secretion” value did it give?
**A.** 1 (1: 90-110% of control)

**Q.** How did the “Insulin secretion” value turn out when `O=C1CCN(CC(O)c2cccc(F)c2)c2ccc(Cl)cc2CN1C1CC1` (stereo not drawn) [Compound 86, 8-chloro-5-cyclopropyl-1-(2-(3-fluorophenyl)-2-hydroxyethyl)-2,3,5,6-tetrahydrobenzo[b][1,5]diazocin-4(1H)-one] was run?
**A.** 2 (2: 110-120% of control)

**Q.** Which “Insulin secretion” value does the source give for `O=C1CCN(C[C@@H](O)COCc2ccccc2)c2ccc3c(c2CN1C1CC1)OCCO3` [Compound 88, 7-[(2R)-3-(benzyloxy)-2-hydroxypropyl]-11-cyclopropyl-2,3,8,9,11,12-hexahydro[1,4]dioxino[2,3-h][1,5]benzodiazocin-10(7H)-one] here?
**A.** 1 (1: 90-110% of control)

**Q.** `COc1ccc2c(c1)CN(C1CC1)C(=O)CCN2C[C@@H](O)COc1ccc(Cl)cc1` [Compound 89, (R)-1-(3-(4-chlorophenoxy)-2-hydroxypropyl)-5-cyclopropyl-8-methoxy-2,3,5,6-tetrahydrobenzo[b][1,5]diazocin-4(1H)-one] was tested. Which “Insulin secretion” value did it give?
**A.** 1 (1: 90-110% of control)

**Q.** For `COc1ccc2c(c1)CN(C1CC1)C(=O)CCN2C[C@H](O)COc1ccc(Cl)cc1` [Compound 90, (S)-1-(3-(4-chlorophenoxy)-2-hydroxypropyl)-5-cyclopropyl-8-methoxy-2,3,5,6-tetrahydrobenzo[b][1,5]diazocin-4(1H)-one], which “Insulin secretion” value is on record?
**A.** 1 (1: 90-110% of control)

**Q.** For `O=C(c1ccno1)N1CCC(=O)N(C2CC2)Cc2c1ccc1c2OCCO1` [Compound 91, 11-cyclopropyl-7-(isoxazol-5-ylcarbonyl)-2,3,8,9,11,12-hexahydro[1,4]dioxino[2,3-h][1,5]benzodiazocin-10(7H)-one], which “Insulin secretion” value is on record?
**A.** 1 (1: 90-110% of control)

**Q.** `O=C(c1ncoc1-c1ccccc1)N1CCC(=O)N(C2CC2)Cc2c1ccc1c2OCCO1` [Compound 92, 11-cyclopropyl-7-[(5-phenyl-1,3-oxazol-4-yl)carbonyl]-2,3,8,9,11,12-hexahydro[1,4]dioxino[2,3-h][1,5]benzodiazocin-10(7H)-one] was tested. Which “Insulin secretion” value did it give?
**A.** 1 (1: 90-110% of control)

**Q.** Which “Insulin secretion” value does the source give for `O=C(CN1CCC(=O)N(C2CC2)Cc2c1ccc1c2OCCO1)c1cccc(F)c1` [Compound 93, 11-cyclopropyl-7-[2-(3-fluorophenyl)-2-oxoethyl]-2,3,8,9,11,12-hexahydro[1,4]dioxino[2,3-h][1,5]benzodiazocin-10(7H)-one] here?
**A.** 1 (1: 90-110% of control)

**Q.** Which “Insulin secretion” value does the source give for `O=C(CN1CCC(=O)N(C2CC2)Cc2c1ccc1c2OCCO1)c1ccc(Cl)cc1` [Compound 94, 7-[2-(4-chlorophenyl)-2-oxoethyl]-11-cyclopropyl-2,3,8,9,11,12-hexahydro[1,4]dioxino[2,3-h][1,5]benzodiazocin-10(7H)-one] here?
**A.** 1 (1: 90-110% of control)

**Q.** With `O=C1CCN(CC(O)COc2ccccc2)c2ccc3c(c2CN1C1CC1)OCCO3` (stereo not drawn) [Compound 95, 11-cyclopropyl-7-(2-hydroxy-3-phenoxypropyl)-2,3,8,9,11,12-hexahydro[1,4]dioxino[2,3-h][1,5]benzodiazocin-10(7H)-one] as the molecule, how does the “Insulin secretion” value read?
**A.** 1 (1: 90-110% of control)
